Reference: PubChem BioAssay (NCI)
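Growth conditions: 96-well plates. Treatment: test compound, 48 hours, 5 concentrations. Analysis: linear interpolation between bracketing concentrations; unreached endpoints set to highest concentration. GI50 is the concentration that inhibits growth by half. TGI marks complete inhibition of growth.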

Columns and labels:
Assay in all cases: NCI anticancer screen, dose series, 48 h
BT-549 breast = system: BT-549 breast
SF-295 CNS = system: SF-295 CNS
K-562 leukemia = system: K-562 leukemia
NCI/ADR-RES ovarian = system: NCI/ADR-RES ovarian
RXF 393 renal = system: RXF 393 renal
T-47D breast = system: T-47D breast
OVCAR-5 ovarian = system: OVCAR-5 ovarian
SF-539 CNS = system: SF-539 CNS
SK-MEL-5 melanoma = system: SK-MEL-5 melanoma
MDA-MB-435 = system: MDA-MB-435

Row | Compound | GI50 (BT-549 breast) [µM] | TGI (BT-549 breast) [µM] | GI50 (SF-295 CNS) [µM] | TGI (SF-295 CNS) [µM] | GI50 (K-562 leukemia) [µM] | TGI (K-562 leukemia) [µM] | GI50 (NCI/ADR-RES ovarian) [µM] | TGI (NCI/ADR-RES ovarian) [µM] | GI50 (RXF 393 renal) [µM] | TGI (RXF 393 renal) [µM] | GI50 (T-47D breast) [µM] | TGI (T-47D breast) [µM] | GI50 (OVCAR-5 ovarian) [µM] | TGI (OVCAR-5 ovarian) [µM] | GI50 (SF-539 CNS) [µM] | TGI (SF-539 CNS) [µM] | GI50 (SK-MEL-5 melanoma) [µM] | TGI (SK-MEL-5 melanoma) [µM] | GI50 (MDA-MB-435) [µM] | TGI (MDA-MB-435) [µM]
1 | O=C(CN(/C=C/C(=O)C(F)(F)F)c1ccccc1)c1ccc(F)cc1 | 31.5 | > 100 | 20.8 | 69.6 | 18.1 | 52.6 | 23.6 | 66 | 39.8 | > 100 | 35.3 | > 100 | 25.6 | 88.7 | 28.7 | 63.8 | 1.34 | 12.3 | 27.1 | 72.1
2 | C=CC[PH+](c1ccccc1)c1ccccc1.C=CC[PH+](c1ccccc1)c1ccccc1.[Pt+2].[S-]c1ncccn1.[S-]c1ncccn1 | 25.1 | > 100 | > 100 | > 100 | 2.99 | > 100 | 22.9 | > 100 | 4.67 | 18.3 | 3.71 | 87.2 | 15.1 | 34.6 | 21.4 | 52.3 | 17.3 | 38.5 | 16.3 | 33.8
3 | CC(C)C/C(=N\NC(=O)c1ccncc1)c1cc(Cl)ccc1O | 0.922 | > 25.6 | 0.256 | 13.2 | 0.516 | > 100 | 0.289 | > 23.7 | 2.37 | > 41 | 0.584 | 33.3 | 0.825 | 38.9 | 0.363 | 5.58 | 0.562 | 2.53 | 0.682 | 44.9
4 | CCOC(=O)C1=C(C)N(Cc2ccc(Cl)cc2Cl)[C@]2(C#N)C(O)=C(Cl)C(Cl)=C(O)[C@]12C#N | 21.1 | > 100 | > 100 | > 100 | 28.1 | 57.5 | 0.19 | 15.6 | 30.6 | 89.1 | 31.9 | 78.4 | 2.7 | 31.3 | 14.2 | 33.1 | > 100 | > 100 | > 100 | > 100
5 | CC/C(=C(/c1ccc(/C=C/C(=O)O)cc1)c1ccc2[nH]ncc2c1)c1ccc(F)cc1Cl | 7.79 | 22.7 | 7.81 | 21.1 | 12.1 | 41 | 9.08 | 26.5 | 5.31 | 16.3 | 0.141 | 26.9 | 17.5 | 35.9 | 7.84 | 21.6 | 8.35 | 21.4 | 2.76 | 8.38
6 | COC(=O)C1=Nc2ccc(F)cc2/C1=C/c1sc(=S)[nH]c1O | 0.161 | 3.31 | 0.125 | 13.2 | 0.045 | > 100 | 0.0704 | 11.5 | 0.0762 | 4.1 | 4.41 | > 100 | 0.91 | > 100 | 0.0743 | 0.751 | 0.131 | 0.745 | 0.0233 | 0.0605
